Activity calls are given as the source filed them. How the calls were made is not given here.
Each molecule was assayed on cell viability, luminescent cytotoxicity assay (assay: cytotoxicity, cell viability loss, SAR follow-up, cytotoxicity control for Gli-SUFU antagonist project, luminescence, set 2 (AID 651859)).
In the case of `O=C(Nc1cc(N2CCNCC2)ncn1)c1ccccc1`, the IC50 is reported as > 11.7 µM (inactive).
With `CC1CCCCN1c1cc(NC(=O)c2ccccc2)ncn1` (stereo not drawn) the IC50 was > 11.7 µM (inactive).
`Cc1ccc(C(=O)Nc2cc(N3CCCCC3)ncn2)cc1` was tested, and the IC50 was > 11.7 µM (inactive).
`N#Cc1cccc(C(=O)Nc2cc(N3CCCCC3)ncn2)c1` was tested, and the IC50 was > 11.7 µM (inactive).
`O=C(Nc1cc(N2CCCCC2)ncn1)c1cccs1` was tested, and the IC50 was > 11.7 µM (inactive).
`CC(C)CNc1cc(NC(=O)c2ccccc2)ncn1` was tested, and the IC50 was > 11.7 µM (inactive).
For `CC(C)(C)Nc1cc(NC(=O)c2ccccc2)ncn1`, the IC50 was > 11.7 µM (inactive).
`O=C(Nc1cc(N2CCCCC2)ncn1)c1ccco1` was tested, and the IC50 was > 11.7 µM (inactive).
In the case of `O=C(Nc1cc(N2CCCCC2)ncn1)c1ccc(Cl)cc1`, the IC50 is reported as > 11.7 µM (inactive).
`CC1CCN(c2cc(NC(=O)c3ccccc3)ncn2)CC1` was tested, and the IC50 was > 11.7 µM (inactive).
In the case of `O=C(Nc1cc(N2CCCCC2)ncn1)c1ccc(C(F)(F)F)cc1`, the IC50 is reported as > 11.7 µM (inactive).
For `O=C(Nc1cc(N2CCSCC2)ncn1)c1ccccc1`, the IC50 was > 11.7 µM (inactive).
`O=C(Nc1cc(N2CCCCC2)ncn1)c1ccccc1` was tested, and the IC50 was > 11.7 µM (inactive).
For `N#Cc1ccc(C(=O)Nc2cc(N3CCCCC3)ncn2)cc1`, the IC50 was > 11.7 µM (inactive).
`O=C(Nc1cc(N2CCCCC2)ncn1)c1ccccc1C(F)(F)F` was tested, and the IC50 was > 11.7 µM (inactive).
With `CCCCNc1cc(NC(=O)c2ccccc2)ncn1` the IC50 was > 11.7 µM (inactive).
`CCOc1ccc(S(=O)(=O)NCc2ccncc2)cc1NC(=O)c1ccccc1` was tested, and the IC50 was > 11.7 µM (inactive).
In the case of `COc1ccccc1C(=O)Nc1cc(N2CCCCC2)ncn1`, the IC50 is reported as > 11.7 µM (inactive).
With `O=C(Nc1cc(N2CCCCCC2)ncn1)c1ccccc1` the IC50 was > 11.7 µM (inactive).
With `CC(C)(C)OC(=O)N1CCN(c2cc(NC(=O)c3ccccc3)ncn2)CC1` the IC50 was > 11.7 µM (inactive).
With `CN1CCN(c2cc(NC(=O)c3ccccc3)ncn2)CC1` the IC50 was > 11.7 µM (inactive).
With `O=C(Nc1cc(NCC2CCCO2)ncn1)c1ccccc1` (stereo not drawn) the IC50 was > 11.7 µM (inactive).
In the case of `O=C(Nc1cc(N2CCCCC2)ncn1)c1cccc2ccccc12`, the IC50 is reported as > 11.7 µM (inactive).
With `COc1cccc(C(=O)Nc2cc(N3CCCCC3)ncn2)c1` the IC50 was > 11.7 µM (inactive).
In the case of `CC(C)Nc1cc(NC(=O)c2ccccc2)ncn1`, the IC50 is reported as > 11.7 µM (inactive).
In the case of `CCCCN(C)c1cc(NC(=O)c2ccccc2)ncn1`, the IC50 is reported as > 11.7 µM (inactive).
With `O=C(Nc1cc(N2CCCCC2)ncn1)c1cc2ccccc2s1` the IC50 was > 11.7 µM (inactive).
In the case of `O=C(Nc1cc(N2CCOCC2)ncn1)c1ccccc1`, the IC50 is reported as > 11.7 µM (inactive).
With `CCOc1ccc(-c2nc(CSCC(=O)NC3CC3)c(C)o2)cc1` the IC50 was > 11.7 µM (inactive).
In the case of `O=C(Nc1cc(N2CCCCC2)ncn1)c1ccccc1Cl`, the IC50 is reported as > 11.7 µM (inactive).
For `O=C(Nc1cc(N2CCCCC2)ncn1)c1ccsc1`, the IC50 was > 11.7 µM (inactive).
In the case of `O=C(Nc1cc(N2CCCCC2)ncn1)c1ccc2ccccc2c1`, the IC50 is reported as > 11.7 µM (inactive).
For `CCC(C)Nc1cc(NC(=O)c2ccccc2)ncn1` (stereo not drawn), the IC50 was > 11.7 µM (inactive).

Reference: PubChem BioAssay AID651859 (Sanford-Burnham Center for Chemical Genomics, 2012)
